# In patent US11806441B2, “Viscoelastic hydrogels with fast stress relaxation” (President and Fellows of Harvard College, priority 2014, dated 2023):
# Test system: U2OS cells
# Experiment: U2OS cells plated on 2D alginate substrates: spreading, YAP localization, proliferation
# Type: cell-based, human
# Settings: 10 μM, initial Young's modulus 1.4 kPa, RGD 1500
# Description: Plating of cells on gels. 1 mm thick alginate hydrogels were prepared as previously described (Zhao et al. J. Appl. Phys. 107, 63509 (2010); and Huebsch et al. Nat Mater 9, 518-526 (2010)). Following gelation, 15 mm disks were punched out, and these disks were washed thoroughly 4 times over 2 days in serum free media to remove any excess calcium. […] Cells were allowed to spread for 20 hours, and then were fixed and stained for analysis. Only isolated cells, without any cell-cell contacts, were analyzed. Immunohistochemistry. For immunohistochemical staining, media was first removed from the gels. The gels were then fixed with 4% paraformaldehyde in serum free DMEM at 37° C. for 30-45 minutes. Gels were then washed 3 times in PBS containing calcium (cPBS). Gels from 3D studies were then incubated overnight in 30% sucrose in cPBS at 4° C. […] Images of all single cells were then thresholded manually based on the actin stain, and the area of the thresholded cell body was determined using a custom macro in ImageJ (NIH). […] The YAP nuclear localization ratio was then determined as the summed intensity of the YAP signal within the nucleus normalized by the nuclear area divided by the summed intensity of the YAP signal outside of the nucleus normalized by the non-nuclear cytoskeleton area.
structure (smiles),measurement,value
C[C@@H](N)[C@H]1CC[C@H](C(=O)Nc2ccncc2)CC1 [Y-27632],effect on increased cell spreading on stress relaxing substrate,abrogated the increased cell spreading
